Converted amounts (≈) assume the structure as drawn.
Experiments:
[1] = system: Staphylococcus epidermidis; experiment: Antibacterial activity against Staphylococcus epidermidis ATCC 12228 assessed as inhibition of visible growth of bacteria incubated for 24 hrs by CLSI protocol based broth-dilution method; format: functional
Staphylococcus aureus = experiment: Antibacterial activity against Staphylococcus aureus ATCC 29213 assessed as inhibition of visible growth of bacteria incubated for 24 hrs by CLSI protocol based broth-dilution method; format: functional

## C=C[C@]1(C)C[C@@H](OC(=O)CSc2cccc(NCc3ccc(B(O)O)cc3)c2)[C@]2(C)[C@H](C)CC[C@]3(CCC(=O)[C@H]32)[C@@H](C)[C@@H]1O
[1]
  MIC: 0.063 µg/mL (≈ 0.102 µM)
Staphylococcus aureus
  MIC: 0.063 µg/mL (≈ 0.102 µM)

## C=C[C@]1(C)C[C@@H](OC(=O)CSc2cccc(NC(=O)c3ccc(OC)c(B(O)O)c3)c2)[C@]2(C)[C@H](C)CC[C@]3(CCC(=O)[C@H]32)[C@@H](C)[C@@H]1O
[1]
  MIC: 0.031 µg/mL (≈ 0.0467 µM)
Staphylococcus aureus
  MIC: 0.031 µg/mL (≈ 0.0467 µM)

## C=C[C@]1(C)C[C@@H](OC(=O)CSc2cccc(NC(=O)c3ccc(B(O)O)cc3[N+](=O)[O-])c2)[C@]2(C)[C@H](C)CC[C@]3(CCC(=O)[C@H]32)[C@@H](C)[C@@H]1O
[1]
  MIC: 0.25 µg/mL (≈ 0.368 µM)
Staphylococcus aureus
  MIC: 0.25 µg/mL (≈ 0.368 µM)

## C=C[C@]1(C)C[C@@H](OC(=O)CSc2cccc(NC(=O)c3cccc(B4OC(C)(C)C(C)(C)O4)c3)c2)[C@]2(C)[C@H](C)CC[C@]3(CCC(=O)[C@H]32)[C@@H](C)[C@@H]1O
[1]
  MIC: 0.063 µg/mL (≈ 0.088 µM)
Staphylococcus aureus
  MIC: 0.063 µg/mL (≈ 0.088 µM)

## C=C[C@]1(C)C[C@@H](OC(=O)CSc2cccc(NC(=O)Cc3ccc(B(O)O)cc3)c2)[C@]2(C)[C@H](C)CC[C@]3(CCC(=O)[C@H]32)[C@@H](C)[C@@H]1O
[1]
  MIC: 0.063 µg/mL (≈ 0.0973 µM)
Staphylococcus aureus
  MIC: 0.063 µg/mL (≈ 0.0973 µM)

## C=C[C@]1(C)C[C@@H](OC(=O)CSc2cccc(NC(=O)c3cc(F)cc(B(O)O)c3)c2)[C@]2(C)[C@H](C)CC[C@]3(CCC(=O)[C@H]32)[C@@H](C)[C@@H]1O
[1]
  MIC: 0.031 µg/mL (≈ 0.0476 µM)
Staphylococcus aureus
  MIC: 0.031 µg/mL (≈ 0.0476 µM)

## C=C[C@]1(C)C[C@@H](OC(=O)CSc2cccc(NC(=O)c3ccc(B(O)O)s3)c2)[C@]2(C)[C@H](C)CC[C@]3(CCC(=O)[C@H]32)[C@@H](C)[C@@H]1O
[1]
  MIC: 0.063 µg/mL (≈ 0.0985 µM)
Staphylococcus aureus
  MIC: 0.063 µg/mL (≈ 0.0985 µM)

Source: ChEMBL document CHEMBL5614394, “Novel pleuromutilin derivatives conjugated with phenyl-sulfide and boron-containing moieties as potent antibacterial agents against antibiotic-resistant bacteria” (Eur J Med Chem, 2024)
